Measurements taken from article PMC10134988, “An Arylbenzofuran, Stilbene Dimers, and Prenylated Diels–Alder Adducts as Potent Diabetic Inhibitors from Morus bombycis Leaves” (Antioxidants, 2023).
Where two headings read alike, the source gives them in different places.

Experiments:
BSA-AGEs formation = experiment: Inhibition of BSA-AGEs formation; assay type: biochemical; conditions: mean ± SD, triplicate
Description: (§1) The inhibitory activity of HRAR was examined according to previous literature with modifications. First, 150 µL of 100 mM sodium phosphate buffer (pH 6.2), 20 µL of 0.3 mM NADPH as the co-enzyme, 5 µL of the test samples (50, 10, and 2 mg/mL or 100% DMSO), and 20 µL of 10 mM DL-glyceraldehyde as the substrate were added to each of the 96 wells (final volume 200 µL). Quercetin was used as a positive control. The inhibitory activity of AGEs formation was examined according to the modified method. Aminoguanidine hydrochloride was used as a positive control for the AGEs formation inhibition assay.

HAS-AGEs formation = experiment: Inhibition of HSA-AGEs formation; assay type: biochemical; conditions: mean ± SD, triplicate
Description: as §1

α-glucosidase [1] = experiment: α-Glucosidase inhibitory activity; assay type: biochemical, Saccharomyces cerevisiae; conditions: isolated compounds; mean ± SD, triplicate
Source text: (§2) Protein tyrosine phosphatase 1B (PTP1B) was purchased from ENZO (Farmingdale, NY, USA). Human recombinant AR (0.4 units) was purchased from Wako Chemicals (Osaka, Japan). Citric acid trisodium salt dehydrate, citric acid monohydrate, sodium carbonate anhydrous, sodium chloride, sodium phosphate dibasic anhydrous, and sodium phosphate monobasic dehydrate were purchased from SAMCHUN (Seoul, Korea). Peroxynitrite (ONOO^−), 3-[(3-cholamidopropyl)dimethylammonio]-1-propanesulfonate (CHAPS), and sodium azide were purchased from Bio-Rad Laboratories Calbiochem (San Diego, CA, USA), GENERAY BIOTECH (Shanghai, China), and JUNSEI (Chuoku, Tokyo, Japan), respectively.
(§3) The enzyme inhibition study was executed spectrophotometrically following the previous literature.

PTP1B [2] = target: T1, PTP1B (Homo sapiens, UniProt P18031); experiment: PTP1B inhibitory activity; assay type: biochemical
T1 construct: purchased ENZO (Farmingdale, NY, USA)
T1 sequence (P18031 1-435): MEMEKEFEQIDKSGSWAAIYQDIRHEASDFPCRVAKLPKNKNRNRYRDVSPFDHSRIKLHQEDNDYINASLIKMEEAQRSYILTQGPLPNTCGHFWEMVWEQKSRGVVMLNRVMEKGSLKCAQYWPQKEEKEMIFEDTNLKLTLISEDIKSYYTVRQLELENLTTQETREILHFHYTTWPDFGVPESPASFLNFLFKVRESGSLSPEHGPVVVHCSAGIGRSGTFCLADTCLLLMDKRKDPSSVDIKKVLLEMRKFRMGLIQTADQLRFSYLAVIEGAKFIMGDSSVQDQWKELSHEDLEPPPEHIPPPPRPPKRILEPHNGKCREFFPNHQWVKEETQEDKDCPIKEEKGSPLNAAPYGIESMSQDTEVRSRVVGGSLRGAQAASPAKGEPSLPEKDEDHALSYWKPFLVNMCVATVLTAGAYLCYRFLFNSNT
Source text: as §2, §3

[3] = ONOO− scavenging activity (DHR123); conditions: mean ± SD, triplicate; read-out: Peroxynitirite IC50
Description: ONOO^− scavenging activity was measured using the method in previous literature involving measuring highly fluorescent rhodamine 123 that is converted from non-fluorescent DHR123 in the presence of ONOO^− [49].

[4] = target: T2, human recombinant aldose reductase (HRAR) (Homo sapiens, UniProt P15121); experiment: HRAR inhibitory activity; assay type: biochemical
T2 construct: purchased Wako Chemicals (Osaka, Japan)
Source text: as §2
as §1, with “Quercetin was used as a positive control.” left out

α-glucosidase [5] = experiment: α-Glucosidase enzyme kinetics (Lineweaver–Burk and Dixon plots); assay type: biochemical, Saccharomyces cerevisiae; conditions: substrate pNPG; for Ki: Dixon plots, read-out: α-Glucosidase Inhibition Constant (Ki); for α-Glucosidase Inhibition Mode: Lineweaver–Burk plots
Description: (§4) The two kinetic methods, Lineweaver–Burk plots and Dixon plots, were used to determine the inhibition mechanism. The α-glucosidase inhibition type was measured at various concentrations of substrate (pNPG, 0.625, 1.25, and 2.5 mM) and several concentrations of test compounds (0.8, 0.4, and 0.16 μM for compound 4; 2, 0.8, and 0.16 μM for 6; 3.17, 1.59, and 0.63 μM for 7; 1.54, 1.04, and 0.62 μM for 8) using Lineweaver–Burk double reciprocal plots. The PTP1B enzyme inhibition type was also measured at various concentrations of substrate (pNPP, 0.5, 1.0, 2.0, and 4.0 mM) and several concentrations of test compounds (4.0, 2.0, and 0.8 μM for compound 4; 2.0, 0.8, and 0.16 μM for 6; 15.87, 7.93, 3.17, and 0.63 μM for 7; 6.17, 3.08, 1.54 and 0.78 μM for 8) using Lineweaver–Burk double reciprocal plots. Dixon plots were used to determine the inhibition constant (Ki) of each compound by testing the effects of substrate and compounds against the α-glucosidase and PTP1B under the same conditions as described above.
(§5) Enzyme kinetic analysis was performed with different concentrations of substrate (pNPG and pNPP) and various concentrations of compounds to determine the type of inhibition on the compounds. Lineweaver–Burk and Dixon plots were used to determine the type of inhibition in enzyme kinetics. Each line of inhibitors intersected at the xy-side, indicating mixed-type inhibitors. On the other hand, the lines penetrated the same point on the x-intercept, representing non-competitive inhibitors in Lineweaver–Burk plots, and the Dixon plot was also used to calculate the Ki value for the enzyme inhibitor complex with the value shown on the x-axis indicating the -Ki value.

PTP1B [6] = target: T1, PTP1B; experiment: PTP1B enzyme kinetics (Lineweaver–Burk and Dixon plots); assay type: biochemical; conditions: substrate pNPP; for Ki: Dixon plots, read-out: PTP1B Inhibition Constant (Ki); for PTP1B Inhibition Mode: Lineweaver–Burk plots
Description: as §4, §5

[7] = ABTS radical scavenging activity; conditions: Table 1; mean ± SD, triplicate
Description: (§6) The ABTS and DPPH radical scavenging activity of the extract and each fraction obtained from M. bombycis leaves were measured according to previous literature with modifications.

[8] = DPPH radical scavenging activity; conditions: Table 1; mean ± SD, triplicate
Description: as §6

[9] = isolated compounds, mean ± SD, triplicate, read-out: PTP1B IC50
[10] = one result of a single experiment, read-out: HRAR IC50

Structure (SMILES) | IC50 (BSA-AGEs formation) | IC50 (HAS-AGEs formation) | IC50 (α-glucosidase [1]) | IC50 (PTP1B [2]; [9]) | IC50 [3] | IC50 [4, 10] | Ki (α-glucosidase [5]) | α-Glucosidase Inhibition Mode (α-glucosidase [5]) | Ki (PTP1B [6]) | PTP1B Inhibition Mode (PTP1B [6]) | also measured
Cl.N=C(N)NN [Aminoguanidine, aminoguanidine hydrochloride, reference compound] | 581 ± 28.7 µM | 504 ± 14.9 µM | – | – | – | – | – | – | – | – | BSA-AGEs IC50 (BSA-AGEs formation; subfractions of EtOAc fraction, Table S1): 36.73 ± 1.64 µg/mL
Oc1cc(O)cc(-c2cc3cc4c(cc3o2)OC(c2cc(O)cc(O)c2)C(c2ccc(O)cc2O)O4)c1 (stereo not shown) [Austrafuran C (6), austrafuran C] | 13.7 ± 0.55 µM | 6.15 ± 0.25 µM | 1.01 ± 0.17 µM | 1.69 ± 0.02 µM | 2.76 ± 0.25 µM | 26.8 µM | 0.75 µM | Mixed | 1.45 µM | Mixed | PTP1B Inhibition Mode (PTP1B [6]; listed as 6): mixed-type inhibition
CC(C)=CCc1c(O)ccc(C(=O)[C@H]2[C@@H](c3c(O)cc(-c4cc5ccc(O)cc5o4)cc3O)C=C(C)C[C@@H]2c2ccc(O)cc2O)c1O [Chalcomoracin (8), chalcomoracin] | 137.6 ± 0.33 µM | 113 ± 3.62 µM | 0.98 ± 0.03 µM | 2.06 ± 0.39 µM | 3.03 ± 0.53 µM | 265 µM | 1.71 µM | Mixed | 4.41 µM | Non-competitive | PTP1B Inhibition Mode (PTP1B [6]; listed as 8): non-competitive-type inhibition
CC(C)(S)[C@H](N)C(=O)O [L-Penicillamine, reference compound] | – | – | – | – | 0.62 ± 0.17 µM | – | – | – | – | – | –
O=C1O[C@H]([C@@H](O)CO)C(O)=C1O [L-ascorbic acid] | – | – | – | – | – | – | – | – | – | – | ABTS IC50 [7]: 3.38 ± 0.19 µg/mL; DPPH IC50 [8]: 2.82 ± 0.57 µg/mL
Oc1cc(O)cc(/C=C/c2ccc(O)cc2O)c1 [Oxyresveratrol (3), oxyresveratrol] | 10.4 ± 0.39 µM | 5.38 ± 0.26 µM | 2.58 ± 0.23 µM | – | 6.24 ± 0.06 µM | – | – | – | – | – | IC50 (PTP1B [2]): 72.9 ± 1.87 µM; IC50 [4]: 265 µM
Cc1c(C)c2c(c(C)c1O)CCC(C)(C(=O)O)O2 (stereo not shown) [Trolox, 6-hydroxy-2,5,7,8-tetramethylchloman-2-carboxylic acid] | – | – | – | – | – | – | – | – | – | – | ABTS IC50 [7]: 2.72 ± 0.13 µg/mL

Now from value to molecule, other results behind:

IC50 (BSA-AGEs formation) | IC50 (HAS-AGEs formation) | IC50 (α-glucosidase [1]) | IC50 (PTP1B [2]; [9]) | IC50 [3] | IC50 [4, 10] | Ki (α-glucosidase [5]) | α-Glucosidase Inhibition Mode (α-glucosidase [5]) | Ki (PTP1B [6]) | PTP1B Inhibition Mode (PTP1B [6]) | Structure (SMILES) | also measured
9.44 ± 0.18 µM | 7.98 ± 0.62 µM | 0.44 ± 0.03 µM | 2.5 ± 0.17 µM | 2.61 ± 0.13 µM | < 4 µM | 0.19 µM | Mixed | 1.54 µM | Mixed | Oc1cc(O)cc(-c2cc3c4c(c(O)cc3o2)OC(c2ccc(O)cc2O)C4c2cc(O)cc(O)c2)c1 (stereo not shown) [Macrourin B (4), macrourin B] | PTP1B Inhibition Mode (PTP1B [6]; listed as 4): mixed-type inhibition
2.4 ± 0.18 µM | 2.07 ± 0.03 µM | 6.11 ± 0.53 µM | 27.1 ± 4.2 µM | 0.92 ± 0.13 µM | 238 µM | – | – | – | – | Oc1cc(O)cc(-c2cc3ccc(O)cc3o2)c1 [Moracin M (5), moracin M] | –
– | – | 1.22 ± 0.05 µM | 10.5 ± 0.25 µM | 8.63 ± 0.02 µM | 337 µM | 1.84 µM | Mixed | 8.9 µM | Mixed | CC(C)=CCc1c(O)ccc(C23Oc4cc(O)ccc4C4CC(C)=CC(c5c(O)cc(-c6cc7ccc(O)cc7o6)cc5O2)C43)c1O (stereo not shown) [Mulberrofuran F (7), mulberrofuran F] | PTP1B Inhibition Mode (PTP1B [6]; listed as 7): mixed-type inhibition
